Measured values as given in publication PMC7075904, “Tethered primary hepatocyte spheroids on polystyrene multi-well plates for high-throughput drug safety testing” (Scientific Reports, 2020).
Where two headings read alike, the source gives them in different places.

Assays:
[1] = tested on: hepatocytes; conditions: cited from earlier work
[2] = tested on: primary human hepatocytes (PHHs) spheroids on the TS-PS system; experiment: Alamar Blue cell viability of PHHs tethered spheroids on PS plates (TS-PS); type: cell-based; conditions: Hepatocyte, PHHs in TS-PS, 24 hours after treatment, 3 donors
Procedure: Cryopreserved PHHs were purchased commercially from Life Technologies (Carlsbad, CA, USA) and BD Biosciences (Franklin Lakes, NJ, USA). Freshly thawed cells were cultured as described[32] with daily culture media change. Hepatocytes from three different donors (three lots of commercial cells) were used for the experiments and all assays were performed after 72 hours of culture.
Cell viability of hepatocytes was measured 24 hours after treatment with drugs using Alamar Blue cell viability assay according to manufacturer’s instructions. Drugs used for the cell viability assays (Acetaminophen, Troglitazone, Chlorpromazine and Diclofenac) were purchased from Sigma. Stock solutions of drugs were prepared in DMSO and then diluted in media to obtain desired working concentrations. Controls were treated with solvent alone (in absence of test compounds) and considered as 100% viability value.

[3] = tested on: hepatocyte tethered spheroids; experiment: Inhibition of spheroid spreading/tethering (live cell imaging of spheroid diameter); type: cell-based; conditions: 24 hour live cell imaging, tethered spheroids on modified PS plates
Procedure: Hepatocytes were cultured as mentioned in section 2.1 and 2.2. Once spheroid formation was observed (2–3 days after cell seeding), cells were treated with DMSO or relevant hepatotoxicants (APAP/troglitazone) at different concentrations. 24 hour live cell imaging was performed starting 2 hours after drug addition using IN Cell Analyzer 2000 Imaging System (GE Healthcare Lifesciences, Buckinghamshire, U.K.). Images were acquired every 2 hours. Images acquired at 2 hours, 8 hours, 16 hours and 24 hours were used for further analysis. Individual spheroids were identified by image segmentation using Matlab Image Processing Toolbox and Statistical Toolbox (Mathworks) and the sizes of the spheroids were determined. Density plots were acquired in R (Version 3.1.2) to show the spheroid size distribution and percentage of spheroids within a certain diameter range at different drug concentrations was plotted in Excel.

[4] = tested on: rat hepatocytes tethered spheroids on modified PS plates; experiment: CellTiter-Glo 3D Cell Viability Assay on tethered spheroids with automated liquid handling; type: cell-based; conditions: 200 μM, 24 hours, rat hepatocyte tethered spheroids; DMSO-treated wells 12.32 × 10^6 RLU
Procedure: Primary hepatocytes were harvested from male Wistar rats using a two-step in situ collagenase perfusion method according to protocols described previously[19],[31]. Freshly isolated rat hepatocytes were seeded onto the different substrates at a density of 1 × 10^5 cells/cm^2 in 96-well microplates and cultured in 100 μl of William’s E culture medium supplemented with 1 mg/mL bovine serum albumin (BSA), 10 ng/mL epidermal growth factor, […] insulin, 5 nM dexamethasone, 50 ng/mL linoleic acid, 100 units/mL penicillin and […]. Media was changed daily during the entire culture period. For collagen monolayer culture, neutralized 1.5 mg/ml Type I bovine collagen (Advanced BioMatrix, San Diego, CA, USA) was coated on the surface of the microplates.
Cell attachment and tethered spheroid formation was monitored using phase contrast microscopy for a period of seven days. In addition, CellTiter-Glo 3D Cell Viability Assay (Promega, Madison, Wisconsin, USA), which determines the number of viable cells present in a 3D cell culture/spheroid by quantifying the amount of ATP present, was used to test the variability in cell attachment across the plate and adaptation of the plate to an automated liquid handling system 5 days after cells seeding. […] After that, CellTiter-Glo 3D was added to each of the wells and the relative light units (RLU) were quantified.

Question: Which IC50 ([1]; read-out: IC50 (conventional cell viability assays)) does the source give for `CC(=O)Nc1ccc(O)cc1` [Acetaminophen] here?
Answer: 8 to 40 mM

Question: What about the IC50 [2] of the same compound?
Answer: 50 mM

Question: And the IC50 ([3]; read-out: IC50 using changes in cellular dynamics (spheroids of diameter 90–120 μm decreased by 50% compared to untreated control))?
Answer: 5 mM

Question: What does the source list for `CN(C)CCCN1c2ccccc2Sc2ccc(Cl)cc21` [Chlorpromazine]?
Answer: CellTiter-Glo 3D signal (relative light units) [4]: 1.55 × 10^4 RLU; IC50 [2]: 0.122 mM

Question: With `O=C(O)Cc1ccccc1Nc1c(Cl)cccc1Cl` [Diclofenac] as the compound, how does the IC50 [2] read?
Answer: 4 mM

Question: For `Cc1c(C)c2c(c(C)c1O)CCC(C)(COc1ccc(CC3SC(=O)NC3=O)cc1)O2` (stereo not drawn) [Troglitazone], which IC50 ([1]; read-out: IC50 (reported)) is on record?
Answer: 0.14 mM

Question: What about the IC50 [2] of the same compound?
Answer: 0.1 mM

Question: And the IC50 ([3]; read-out: Concentration at which spheroids of diameter 90–120 μm decreased by 50% compared to untreated control)?
Answer: 0.01 mM
